Laboratory results taken from patent publication US20210145834A1, “COMBINATION OF POZIOTINIB WITH CYTOTOXIC AGENT AND/OR OTHER MOLECULARLY TARGETED AGENT AND USE THEREOF” (Spectrum Pharmaceuticals, Inc., priority 2018, published 2021).
“And” between values parts separate entries of the source, which are not always exact repeats. Identical values can stand only once. Like-named read-outs stand apart in the source and are kept apart here. Blank lines part the entries; values can stand above or below the molecule they belong to.

Experiments:
Assay type in all cases: cell-based
TE-4 cells = experiment: Cell growth inhibition assay (sulforhodamine B), single agents and combinations; settings: 72 h; TE-4, single agent, 3 days
Procedure: The effect of the inventive compositions on the cancer cell growth inhibition was conducted in EGFR-overexpressed or -mutated cancer cell lines. […] All cells except for H1975 were cultured for 72 hours prior to cell plating. […] Approximately 24 hours after plating, cells were exposed to ten, two-fold or three fold serial dilutions of test individual compounds or the combination of the two test compounds at a constant molar to molar ratio or non-constant ratio of two agents. Cells were incubated in the presence of compounds for 3 days except for H1975, which was for 2 days at 3×10^3 cells/well. Cell growth inhibition based on measurement of cellular protein content is determined by sulforhodamine B colorimetric assay according to the “Nat Protoc. […] The absorbance was read on a SpectraMax™ plate reader at 540 nm. For H1975 cells, cell growth (%) is determined by adding CellTiter™ 96 Aqueous One Solution Cell Proliferation Assay reagent (Promega) according to the manufacturer's protocol. […] Cell growth (%) was calculated by following equations. Percentage growth inhibition was calculated using: a. […] [(Ti−Tz)/Tz]×100, for concentrations for which Ti<Tz Each T value means an absorbance. […] Combination effects on potency were evaluated by combination Index using Calcusyn™ Software. […] The combination Index (CI) at the dose of combination GI50 was evaluated by using CalcuSyn™ (Biosoft).

H1975 cells = experiment: Cell growth inhibition assay (CellTiter 96 Aqueous One), single agents and combinations; settings: H1975, single agent, 2 days
Procedure: (§1) The effect of the inventive compositions on the cancer cell growth inhibition was conducted in EGFR-overexpressed or -mutated cancer cell lines.
(§2) All cells except for H1975 were cultured for 72 hours prior to cell plating. Cells were seeded in a 96-well plate at 4 to 15×10^3 cells/well. Approximately 24 hours after plating, cells were exposed to ten, two-fold or three fold serial dilutions of test individual compounds or the combination of the two test compounds at a constant molar to molar ratio or non-constant ratio of two agents. Cells were incubated in the presence of compounds for 3 days except for H1975, which was for 2 days at 3×10^3 cells/well.
(§3) Cell growth inhibition based on measurement of cellular protein content is determined by sulforhodamine B colorimetric assay according to the “Nat Protoc. […] The absorbance was read on a SpectraMax™ plate reader at 540 nm. For H1975 cells, cell growth (%) is determined by adding CellTiter™ 96 Aqueous One Solution Cell Proliferation Assay reagent (Promega) according to the manufacturer's protocol.
(§4) Inhibition of cell growth was estimated after treatment with test agent or combination of test agents for incubating time (2-3 days) and comparing the signal to cells treated with vehicle (DMSO). Cell growth (%) was calculated by following equations.
(§5) Percentage growth inhibition was calculated using:
(§6) a. [(Ti−Tz)/(C−Tz)]×100, for concentrations for which Ti=Tz
(§7) b. [(Ti−Tz)/Tz]×100, for concentrations for which Ti<Tz
(§8) Each T value means an absorbance. Tz: Time zero (cell density group before the treatment of test group), C:100% control growth […] test agent, Ti: Test growth in the presence of drug at the concentration levels.
(§9) Combination effects on potency were evaluated by combination Index using Calcusyn™ Software. The range of Combination Index (CI) for two compounds is described in Table 2.
(§10) Fifty percent growth inhibition values (GI50) for combinations of poziotinib with partner drugs were calculated and the single dosing growth inhibition (%) at the dose of combo GI50 were also calculated by using GraphPad Prism™ v6. The combination Index (CI) at the dose of combination GI50 was evaluated by using CalcuSyn™ (Biosoft).

MDA-MB-453 cells = experiment: Cell growth inhibition assay (sulforhodamine B), single agents and combinations; settings: MDA-MB-453, single agent, 3 days
Procedure: as §1, §2, §3, §4, §5, §6, §7, §8, §9, §10

HCC827 cells = experiment: as above; settings: HCC827, single agent, 3 days
Procedure: as §1, §2, §3, §4, §5, §6, §7, §8, §9, §10

BT-474 cells = experiment: as above; settings: BT-474, single agent, 3 days
Procedure: as §1, §2, §3, §4, §5, §6, §7, §8, §9, §10

Calu-3 cell line = experiment: Synergy effect study on cell proliferation (Example 2), single agents and 6x6 combo matrix; settings: Calu-3, single compound; for Max inh. / IC50: 3 days
Procedure: as §2, with “Cells” for “All cells except for H1975 were cultured for 72 hours prior to cell plating. Cells”, “days.” for “days except for H1975, which was for 2 days at 3×10^3 cells/well.”
as §4
(§11) Percentage growth inhibition was calculated using both Bliss independence model and Lowewe additivity model. A score higher than 5 indicates synergy and a score less that −5 indicates antagonism.

BT-474 cell line = experiment: as above; settings: BT-474, single compound; for IC50 / Max inh.: 3 days
Procedure: as §2, with “Cells” for “All cells except for H1975 were cultured for 72 hours prior to cell plating. Cells”, “days.” for “days except for H1975, which was for 2 days at 3×10^3 cells/well.”
as §4, §11

SK-BR-3 cell line = experiment: as above; settings: SK-BR-3, single compound, 3 days
Procedure: In this example, effects of direct cell killing of selected cancer cell line Calu-3, BT-474 and SK-BR-3 treated with Poziotinib alone or in combination with other agents were assessed.
as §2, with “cells” for “cells except for H1975”, “in the media listed in the temperature of 37° C., 5% CO2 and 95% humidity.” for “for 72 hours prior to cell plating.”, “days.” for “days except for H1975, which was for 2 days at 3×10^3 cells/well.”
as §4, §11
Calu-3, BT-474 or SK-BR-3 cell lines were tested with Poziotinib combined with a second compound respectively in a 6×6 combo matrix for 3 days at 37° C., 5% CO2 and 95% humidity as shown in combinations shown in the tables herein below: […]

N87 cells = experiment: Cell growth inhibition assay (sulforhodamine B), single agents and combinations; settings: 72 h; N87, single agent, 3 days
Procedure: as §1, §2, §3, §4, §5, §6, §7, §8, §9, §10

MDA-MB-468 cells = experiment: as above; settings: Homo sapiens, 72 h; MDA-MB-468, single agent, 3 days
Procedure: as §1, §2, §3, §4, §5, §6, §7, §8, §9, §10

MDA-MB-361 cells = experiment: as above; settings: Homo sapiens, 72 h; MDA-MB-361, single agent, 3 days
Procedure: as §1, §2, §3, §4, §5, §6, §7, §8, §9, §10

SK-BR-3 cells = experiment: as above; settings: Homo sapiens, SK-BR-3, 72 h; SK-BR3, single agent, 3 days
Procedure: as §1, §2, §3, §4, §5, §6, §7, §8, §9, §10

MCF-7 cells = experiment: as above; settings: Homo sapiens, MCF7, 72 h; MCF-7, single agent, 3 days
Procedure: as §1, §2, §3, §4, §5, §6, §7, §8, §9, §10

[1] = Homo sapiens, Calu-3, 72 h, read-out: IC50

Molecule: N.N.[Cl][Pt][Cl] [Cisplatin]
Max inh. (Calu-3 cell line): 59.75% and 69.39% and 68.77%
IC50 (BT-474 cell line): > 100000 nM
Max inh. (BT-474 cell line): 41.78% and 37.43%
GI50 (H1975 cells): > 10000 nM
GI50 (MDA-MB-453 cells): > 10000 nM
GI50 (HCC827 cells): > 20000 nM
GI50 (BT-474 cells): > 20000 nM
IC50 (SK-BR-3 cell line): 549 nM
Max inh. (SK-BR-3 cell line): 98.11%

Molecule: N#Cc1ccc(C(c2ccc(C#N)cc2)n2cncn2)cc1 [Letrozole]
cell inhibitory activity (in words) (BT-474 cell line): weak or no response
Max inh. (BT-474 cell line): −15.80%
IC50 (BT-474 cell line; Homo sapiens, 72 h): > 10000 nM

Molecule: CC(=O)O[C@H]1C(=O)[C@@]2(C)[C@H]([C@H](OC(=O)c3ccccc3)[C@]3(O)C[C@H](OC(=O)[C@H](O)[C@@H](NC(=O)c4ccccc4)c4ccccc4)C(C)=C1C3(C)C)[C@]1(OC(C)=O)CO[C@@H]1C[C@@H]2O [Paclitaxel]
GI50 (H1975 cells; Homo sapiens, NCI-H1975, 48 h): 21.6 nM
GI50 (MDA-MB-453 cells; Homo sapiens, MDA-MB-453, 72 h): 3 nM
GI50 (HCC827 cells; Homo sapiens, 72 h): 3.4 nM
GI50 (BT-474 cells; Homo sapiens, BT-474, 72 h): 1 nM

Molecule: CC(=O)c1c(C)c2cnc(Nc3ccc(N4CCNCC4)cn3)nc2n(C2CCCC2)c1=O [Palbociclib]
Max inh. (BT-474 cell line): 12.13%
IC50 (BT-474 cell line; Homo sapiens, 72 h): > 5000 nM

Molecule: Nc1nc2[nH]cc(CCc3ccc(C(=O)N[C@@H](CCC(=O)O)C(=O)O)cc3)c2c(=O)[nH]1 [Pemetrexed]
cell inhibitory activity (in words) (Calu-3 cell line): not effective
Max inh. (Calu-3 cell line): 49.78%
IC50 (Calu-3 cell line; [1]): > 10000 nM
cell inhibitory activity (in words) (BT-474 cell line): not effective
Max inh. (BT-474 cell line): 1.78%
IC50 (BT-474 cell line; Homo sapiens, 72 h): > 10000 nM

Molecule: CC(=O)Nc1cccc(-n2c(=O)n(C3CC3)c(=O)c3c(Nc4ccc(I)cc4F)n(C)c(=O)c(C)c32)c1 [Trametinib]
Max inh. (Calu-3 cell line): 89.69%
IC50 (Calu-3 cell line; [1]): 42 nM
Max inh. (BT-474 cell line): 15.91%
IC50 (BT-474 cell line; Homo sapiens, 72 h): > 10000 nM

Molecule: ado-trastuzumab emtansine [T-DM1]
IC50 (Calu-3 cell line): 90.449 µg/mL
Max inh. (Calu-3 cell line): 55.24%
Max inh. (SK-BR-3 cell line): 85.37%

Second part, led by results:

GI50 (H1975 cells; Homo sapiens, NCI-H1975, 48 h): > 10000 nM
GI50 (MDA-MB-453 cells; Homo sapiens, MDA-MB-453, 72 h): 385 nM
GI50 (HCC827 cells; Homo sapiens, 72 h): 980 nM
GI50 (BT-474 cells; Homo sapiens, BT-474, 72 h): 9000 nM
Molecule: O=c1[nH]cc(F)c(=O)[nH]1 [5-FU, Fluorouracil]
GI50 (TE-4 cells): 7900 nM

IC50 (BT-474 cell line; listed as Pozotinb): < 1.5 nM
IC50 (BT-474 cell line; Homo sapiens, 72 h): < 1.5 nM
GI50 (H1975 cells): 1.3 nM
GI50 (MDA-MB-453 cells; Homo sapiens, MDA-MB-453, 72 h): 2.5 nM
GI50 (HCC827 cells; Homo sapiens, 72 h): 0.4 nM
GI50 (MDA-MB-468 cells): 640 nM
GI50 (MDA-MB-361 cells): 21 nM
GI50 (SK-BR-3 cells): 0.9 nM
GI50 (MCF-7 cells): 2740 nM
GI50 (BT-474 cells; Homo sapiens, BT-474, 72 h): 0.5 nM
IC50 (SK-BR-3 cell line; Homo sapiens, 72 h): 1 nM
Molecule: C=CC(=O)N1CCC(Oc2cc3c(Nc4ccc(Cl)c(Cl)c4F)ncnc3cc2OC)CC1 [Poziotinib, 1-[4-[4-(3,4-dichloro-2-fluoroanilino)-7-methoxyquinazolin-6-yl]oxypiperidin-1-yl]prop-2-en-1-one]
GI50 (TE-4 cells): 0.8 nM
Max inh. (Calu-3 cell line): 94.51% and 81.67%
Max inh. (Calu-3 cell line; listed as Pozotinb): 89.22%
Max inh. (BT-474 cell line): 71.74%
Max inh. (BT-474 cell line; listed as Pozotinb): 68.16%
GI50 (N87 cells): 0.1 nM
Max inh. (SK-BR-3 cell line): 57.81%

IC50 (Calu-3 cell line; [1]): 4480 nM
Molecule: CNC(=O)c1cc(Oc2ccc(NC(=O)Nc3ccc(Cl)c(C(F)(F)F)c3)cc2)ccn1 [Sorafenib]
Max inh. (Calu-3 cell line): 64.29%

IC50 (Calu-3 cell line; [1]): 167 nM
Molecule: CO[C@H]1C[C@@H]2CC[C@@H](C)[C@@](O)(O2)C(=O)C(=O)N2CCCC[C@H]2C(=O)O[C@H]([C@H](C)C[C@@H]2CC[C@@H](OC(=O)C(C)(CO)CO)[C@H](OC)C2)CC(=O)[C@H](C)/C=C(\C)[C@@H](O)[C@@H](OC)C(=O)[C@H](C)C[C@H](C)/C=C/C=C/C=C/1C [Temsirolimus]
Max inh. (Calu-3 cell line): 58.19%

GI50 (MDA-MB-468 cells): 0.3 nM
GI50 (MDA-MB-361 cells): 1.1 nM
GI50 (SK-BR-3 cells): 1.7 nM
GI50 (MCF-7 cells): 3.6 nM
GI50 (BT-474 cells; Homo sapiens, BT-474, 72 h): 2.3 nM
Molecule: CCC1=C[C@@H]2CN(C1)Cc1c([nH]c3ccccc13)[C@@](C(=O)OC)(c1cc3c(cc1OC)N(C)[C@H]1[C@@](O)(C(=O)OC)[C@H](OC(C)=O)[C@]4(CC)C=CCN5CC[C@]31[C@@H]54)C2 [Vinorelbine]
